The values that follow are results of earlier work, collected in patent US20100143437A1, “IMPLANTABLE ANALGESIC” (priority 2008, published 2010).

For this data set the following is noted: in adults.

As for `CCCCN1CCCCC1C(=O)Nc1c(C)cccc1C` (stereo not shown) [bupivacaine, 1-butyl-N-(2,6-dimethylphenyl) piperidine-2-carboxamide], the half life result was “approximately 210 minutes”.
